Data reported in patent US20120004157A1, “HYDROXYPROLINE COMPOSITIONS AND USES THEREOF” (Bergen Teknologioverforing AS, priority 2007, published 2012).
“Also recorded” adds a separate entry of the source.

What was measured:
[1] = tested on: Atlantic salmon (Salmo salar); experiment: 88 days growth experiment, growth and feed performance; assay type: in vivo; details: 88 days feeding
Text: The diets used were composed such that they are equal in protein, lipid and energy, and designed to vary only in level of Hydroxyproline. The small amounts of Hydroxyproline added (L-4-Hydroksyproline, >99.0% pure, Fluka BioChemika. Sigma-Aldrich Chemie GmbH) were exchanged with fish meal, and the diets were otherwise adjusted with the content of raw wheat to secure equal chemical composition. Five different levels of Hydroxyproline were used in a regression design with two replicates for each level, except the diet without Hydroxyproline addition that was run in triplicate tanks. The levels used of hydroxyproline were 0, 0.7 gkg^−1, 1.4 gkg^−1, 2.8 gkg^−1 and 5.6 gkg^−1. As a negative control, Proline (L-Proline, (Hydroxy-L-Proline Free) Sigma grade, Sigma Chemical Company) was added to a level of 2.8 gkg^−1.
Atlantic salmon (Salmo salar) was obtained from Salmobreed May 2006. The fish was prevaccinated with Trippel Forte and was acclimated for 56 days before the trial started. The fish was given EWOS Opal Boost 50 3A, 3 mm pellets during this period. The fish was randomly distributed among 14 fiberglass tanks (1.5×1.5×1 m^3) with 80 fish per tank. Diet 1 and Diet 6 were run in triplicate tanks. Diet 2, Diet 3, Diet 4 and Diet 5 was run in duplicate tanks. Data are given also for a fish meal diet with no plant protein included. This diet was run simultaneously with fish of the same size, origin and treatment. This diet (Diet 7) was run in 2 m×2 m×1 m tanks in triplicate in a parallel experiment. The tanks were supplied with 75 I min^−1 of seawater taken from a depth of 50 m with average salinity of 3.2-3.3%. Water temperature was kept constant at 10.4±0.4° C. during the acclimatization and the experimental period, using a heat exchanger to adjust the sea water temperature. Throughout the experimental period of 88 days, the fish were exposed to 24 h artificial light. Great care was taken to reduce disturbance from the environment. Automatic feeders were used to add feed from 05.00 to 08.00 hrs and from 14.00 to 03.00 hrs. The level of feeding was regulated in such a way that offered feed was 110% of expected consumption based on daily monitoring of wasted feed. Uneaten feed was continuously removed by automatic collection and separated from feces using an Excess Fishfeed Collector (Holland Teknologi, Norway). Feed intake was measured daily as the difference between total feed given and total uneaten feed collected. Feed intake for the total experimental period was measured as the sum of the daily feed intakes, divided by feeding days and average fish weight during the experimental period; (start weight+final weight)/2. Feeding was sustained until the fish was sampled for analyses.
The six experimental diets were randomly assigned to the 14 tanks, with 3 replicate tanks for Diet 1 and Diet 6 and to duplicate tanks for the other experimental diets. Initial fish weights and lengths were recorded. Twenty fish representing the weight ranges were sampled, killed by a blow on the head, frozen and kept at −80° C. pending analyses of fish at start. Final weights were determined for each fish in all tanks. At the end of the feeding period, the fish were anaesthetized with Eugonol (iso-eugunol was diluted 1:1 with ethanol and the diluted solution was added 15 ml per m^3 water in the tanks). After about 15 min, 10 fish from each tank were sampled, killed by a blow in the head, gutted and weight of slaughtered fish, liver and viscera were noted. Five other fish from each tank were pooled and frozen for pending analyses.
The 88 days growth experiment was run successfully with a thermal growth coefficient (TGC) of 2.5 for the fish meal control diet. Some loss of fish occurred during the experimental period and some fish seemed not to develop normally. […]

[2] = tested on: Atlantic salmon (Salmo salar); experiment: Subjective scoring of wounds on skin, damage on dorsal fin and loss of shells; assay type: in vivo; details: scale from 0 (no damage) to 5 (severe damages), 88 days feeding, Diets 2-5 = 0.7, 1.4, 2.8, 5.6 gkg−1 added hydroxyproline, mean ± SD
Protocol: Wounds on skin, damages on dorsal fin and loss of shells were evaluated in the 10 salmons from each tank. The measure was subjectively based on a scale from 0 (no damage) to 5 (severe damages). The data and statistics are included in the table below (based on 110 measures) and shown in the figure based on average values for each tank). The statistics given are based on linear regression. […] (Table 3 and FIGS. 5, 6 and 7)

[3] = Retention of dietary hydroxyproline in fish; assay type: in vivo; details: FIG. 1
Protocol: (§1) Trout were fed fish hydrolysate and fractions thereof to identify bioactive compounds (see Table 2).
The experiments where fish were fed a diet including varying levels of hydroxyproline were performed as described above.
The retention of hydroxyproline is statistically correlated to the dietary level. Low dietary levels (0.8 g per kg diet) give retention of close to 100% while higher dietary levels (>4.5 g per kg diet) gives retention of 20-30%.

[4] = Blood plasma levels of hydroxyproline in trout fed 90 days; assay type: in vivo; details: for blood plasma levels of Hydroxyproline: trout fed for 90 days, FIG. 2
Protocol: as §1
The y axis is plasma levels in micromoles per 100 ml and the x-axis is the dietary level of component in g per kg diet.

psoriasis = details: Phase III psoriasis study, topical formulation; not statistically significant; cited from earlier work
[5] = added hydroxyproline gkg−1: Diet 2 0.7, Diet 3 1.4, Diet 4 2.8, Diet 5 5.6, mean ± SD
[6] = at 2.9 gkg−1 added Hydroxyproline

| Structure (SMILES) | nutritional requirement indicated by the growth curve [1] | Body weight at end, g [1, 5] | Weight gain, g/fish [1, 5] | increase of weight gain compared with no Hydroxyproline added (Diet 1) [1, 6] [%] | weight gain at the maximum of the regression equation [1, 6] [g] | added Hydroxyproline at maximum of the weight gain regression equation ([1]; polynomial regression, n=11) [gkg−1] | SGR ([1]; specific growth rate, Diets 2-5 = 0.7, 1.4, 2.8, 5.6 gkg−1 added hydroxyproline, mean ± SD) | TGC ([1]; thermal growth coefficient, Diets 2-5 = 0.7, 1.4, 2.8, 5.6 gkg−1 added hydroxyproline, mean ± SD) | Damage on dorsal fin [2] | Loss of shells [2] | Wounds on skin [2] | retention of Hydroxyproline in the fish ([3]; higher dietary levels (>4.5 g per kg diet)) | retention of Hydroxyproline in the fish ([3]; low dietary levels (0.8 g per kg diet)) [%] | dietary level above which the negative effects are eliminated ([4]; from retention, plasma and tissue data) | blood plasma levels of Hydroxyproline ([4]; dietary level 0.8 g per kg) | blood plasma levels of Hydroxyproline ([4]; dietary levels >4 g per kg) | greater improvement in mean lesion scores in the treated group compared to placebos (psoriasis) [%] |
| --- | --- | --- | --- | --- | --- | --- | --- | --- | --- | --- | --- | --- | --- | --- | --- | --- | --- |
| O=C(O)[C@@H]1C[C@@H](O)CN1 [Hydroxyproline, L-4-Hydroksyproline] | 2.5-3 g per kg diet | growth promoting effect | growth promoting effect | 14.0 | 155 | 2.9 | growth promoting effect | growth promoting effect | lesser degree of damage to the dorsal fin | lower levels of fish scale loss | lesser degree of wounding | 20-30% | ~100 | 3-4 g per kg diet | much lower than previously known (normal values); also recorded: much lower than earlier published (normal values) | very high plasma levels |  |
| Nc1nc2c(Cc3cccnc3)c[nH]c2c(=O)[nH]1 [BCX-34] |  |  |  |  |  |  |  |  |  |  |  |  |  |  |  |  | 14 |
